Broadly, the MIC is the smallest concentration in the dilution series that meets the test's criterion for growth inhibition. Read a high MIC as weaker potency.

One assay deals with E. coli ATCC 25922. Kind of assay: MIC, E. coli ATCC 25922. Format: cell-based. To be noted: Alamar Blue read after overnight incubation at 35° C.; for MIC: Escherichia coli, ATCC25922, E. coli. In general terms: Alamar Blue is a resazurin reagent that responds to reducing activity.
The test system of a further assay is S. aureus ATCC 13709. Put plainly: MIC, S. aureus ATCC 13709 (Alamar Blue broth microdilution). Format: cell-based. Particulars: Alamar Blue read after overnight incubation at 35° C.; for MIC: Staphylococcus aureus, ATCC13709, S. aureus.

≈ marks a conversion by molar mass, not a printed value. A value given as a limit tells only on which side of the number the result lay.

With `CNc1cccc2c1[nH]c1nc(Sc3cnc4ccc[n+]([O-])c4c3)nc(N3CC[C@@H](C)[C@@H](N)C3)c12` [1.35], the MIC was 2 µg/mL (≈ 4.11 µM) in the assay on E. coli ATCC 25922 and at most 0.5 µg/mL against S. aureus ATCC 13709.
The like results for `CNc1cccc2c1[nH]c1nc(Sc3cncc(S(=O)(=O)NC)c3)nc(N3CC4C(N)C4C3)c12` (stereo not drawn) [1.36] were, in that order, 4 µg/mL (≈ 8.05 µM) and 2 µg/mL (≈ 4.03 µM).
The like results for `CNc1cccc2c1[nH]c1nc(Sc3cnc4cccnc4c3)nc(N3CCC[C@@H](N)C3)c12` [1.37] were, in that order, 4 µg/mL (≈ 8.76 µM) and 1 µg/mL (≈ 2.19 µM).
On the same counts, the results for `CNc1cccc2c1[nH]c1nc(Sc3cnc4ccc[n+]([O-])c4c3)nc(N3CCC4(CC4N)C3)c12` (stereo not drawn) [1.38] are 2 µg/mL (≈ 4.13 µM) and at most 0.5 µg/mL.
Consider `CNc1cccc2c1[nH]c1nc(Sc3cnc4ccc[n+]([O-])c4c3)nc(N3CCC4(CC4N)C3)c12` (stereo not drawn) [1.39], for which the “MIC Ec” value against E. coli ATCC 25922 (E. coli) was 1 µg/mL (≈ 2.06 µM). Moreover, in the assay with S. aureus ATCC 13709 (S. aureus), the “MIC Sa” value is at most 0.5 µg/mL.
For the compound `CNc1cccc2c1[nH]c1nc(Sc3cnc4ccc[n+]([O-])c4c3)nc(N3CC(N)C4(CC4)C3)c12` (stereo not drawn) [1.40], the minimum inhibitory concentration (MIC) against E. coli ATCC 25922 was 1 µg/mL (≈ 2.06 µM); in the assay with S. aureus ATCC 13709, at most 0.5 µg/mL.
`CNc1cccc2c1[nH]c1nc(Sc3cncc(S(N)(=O)=O)c3)nc(N3CC4C(N)C4C3)c12` (stereo not drawn) [1.41]: the MIC with E. coli ATCC 25922 came to 8 µg/mL (≈ 16.6 µM); in the assay on S. aureus ATCC 13709, 4 µg/mL (≈ 8.29 µM).
Regarding `CNc1cccc2c1[nH]c1nc(Sc3cncc(S(=O)(=O)NCCO)c3)nc(N3CC4C(N)C4C3)c12` (stereo not drawn) [1.42], the MIC was 32 µg/mL (≈ 60.8 µM) with E. coli ATCC 25922 and 8 µg/mL (≈ 15.2 µM) in the assay with S. aureus ATCC 13709.
On the same counts, the results for `CNc1cccc2c1[nH]c1nc(Sc3cncnc3)nc(N3CC4C(N)C4C3)c12` (stereo not drawn) [1.43] are 8 µg/mL (≈ 19.8 µM) and 2 µg/mL (≈ 4.94 µM).
On the same counts, the results for `CNc1cccc2c1[nH]c1nc(Sc3cncnc3)nc(N3CC(N)C4(CC4)C3)c12` (stereo not drawn) [1.44] are 2 µg/mL (≈ 4.78 µM) and 1 µg/mL (≈ 2.39 µM).
On the same counts, the results for `CNc1cccc2c1[nH]c1nc(Sc3cnc4cccnc4c3)nc(N3CCCCC(N)C3)c12` (stereo not drawn) [1.45] are 4 µg/mL (≈ 8.5 µM) and 1 µg/mL (≈ 2.12 µM).
For the compound `CNc1cccc2c1[nH]c1nc(Sc3cnc4cccnc4c3)nc(N3CCNCC3)c12` [1.46], the minimal inhibitory concentration (MIC) was 4 µg/mL (≈ 9.04 µM) in the assay with E. coli ATCC 25922 and 2 µg/mL (≈ 4.52 µM) in the assay with S. aureus ATCC 13709.
On the same counts, the results for `CNc1cccc2c1[nH]c1nc(Sc3cnc4cccnc4c3)nc(N3CC4CNC(C4)C3)c12` (stereo not drawn) [1.47] are 2 µg/mL (≈ 4.27 µM) and at most 0.5 µg/mL.
As for `CNc1cccc2c1[nH]c1nc(Sc3cnc4cccnc4c3)nc(N3CCC(CN)C3)c12` (stereo not drawn) [1.48], the values for the MIC in the assay with E. coli ATCC 25922 and against S. aureus ATCC 13709 were 2 µg/mL (≈ 4.38 µM) and at most 0.5 µg/mL, respectively.
Turning to `CNc1cc(F)cc2c1[nH]c1nc(Sc3cnc4ccc[n+]([O-])c4c3)nc(N3CC4C(N)C4C3)c12` (stereo not drawn) [1.50], the MIC against E. coli ATCC 25922 and against S. aureus ATCC 13709 was at most 0.5 µg/mL each time.
With `CNc1cc(F)cc2c1[nH]c1nc(Sc3cnc4cccnc4c3)nc(N3CC4C(N)C4C3)c12` (stereo not drawn) [1.51], the MIC in the assay on E. coli ATCC 25922 and against S. aureus ATCC 13709 was at most 0.5 µg/mL in each case.
As to `CNc1cccc2c1[nH]c1nc(Sc3cnc4ccc[n+]([O-])c4c3)nc(N3CC4C(C3)C4NC(=O)[C@H](C)N)c12` (stereo partly drawn) [1.52], the minimum inhibitory concentration (MIC) worked out at 16 µg/mL (≈ 29.5 µM) against E. coli ATCC 25922 and 1 µg/mL (≈ 1.85 µM) with S. aureus ATCC 13709.
The like results for `CNc1cccc2c1[nH]c1nc(Sc3cnc4cccnc4c3)nc(N3CCC(CO)C3)c12` (stereo not drawn) [1.53] were, in that order, 8 µg/mL (≈ 17.5 µM) and at most 0.5 µg/mL.
Turning to `CNc1cccc2c1[nH]c1nc(Sc3cnc4cccnc4c3)nc(N3CCN(c4cnccn4)CC3)c12` [1.54], the MIC is above 64 µg/mL with E. coli ATCC 25922 and at most 0.5 µg/mL in the assay on S. aureus ATCC 13709.
On the same counts, the results for `CNc1cccc2c1[nH]c1nc(Sc3cnc4cccnc4c3)nc(N3CC4CNCC4C3)c12` (stereo not drawn) [1.55] are 8 µg/mL (≈ 17.1 µM) and 1 µg/mL (≈ 2.13 µM).
For the compound `CNc1cccc2c1[nH]c1nc(Sc3cnc4cccnc4c3)nc(N3CCC4(CCNCC4)C3)c12` [1.56], the MIC came to 32 µg/mL (≈ 64.4 µM) with E. coli ATCC 25922 and 4 µg/mL (≈ 8.05 µM) against S. aureus ATCC 13709.
The like results for `CNc1cccc2c1[nH]c1nc(Sc3cnc4ccc[n+]([O-])c4c3)nc(N3CC4CC3CN4)c12` (stereo not drawn) [1.57] were, in that order, above 32 µg/mL and above 32 µg/mL.
As for `CNc1ccc(C)c2c1[nH]c1nc(Sc3cnc4cccnc4c3)nc(N3CC4C(N)C4C3)c12` (stereo not drawn) [1.58], the values for the MIC against E. coli ATCC 25922 and with S. aureus ATCC 13709 were 8 µg/mL (≈ 17.1 µM) and at most 0.5 µg/mL, respectively.
For `CNc1cccc2c1[nH]c1nc(Sc3cnc4cccnc4c3)nc(N3CCC(C)(N)C3)c12` (stereo not drawn) [1.59], the MIC against E. coli ATCC 25922 is 4 µg/mL (≈ 8.76 µM); in the assay on S. aureus ATCC 13709 it was 1 µg/mL (≈ 2.19 µM).
The like results for `CNc1cccc2c1[nH]c1nc(Sc3cnc4cccnc4c3)nc(N3C[C@@H](N)C[C@H]3C)c12` [1.60] were, in that order, 2 µg/mL (≈ 4.38 µM) and 0.5 µg/mL (≈ 1.1 µM).
Consider `CNc1cccc2c1[nH]c1nc(Sc3cnc4cccnc4c3)nc(N3C[C@H](N)C[C@H]3C)c12` [1.61], for which the MIC is 64 µg/mL (≈ 140 µM) against E. coli ATCC 25922 and 8 µg/mL (≈ 17.5 µM) in the assay on S. aureus ATCC 13709.
The like results for `CNc1cc(F)cc2c1[nH]c1nc(Sc3cnc4cccnc4c3)nc(N3CC(N)C4(CC4)C3)c12` (stereo not drawn) [1.62] were, in that order, at most 0.5 µg/mL and at most 0.5 µg/mL.

These data come from patent US10858360B2, “Tricyclic gyrase inhibitors” (priority 2011, dated 2020).
